pIC50: −log10 of the molar value.
Molecular target: T1, PI3Kα H1047R (T47D cells) (Homo sapiens, UniProt P42336, H1047R)
T1 construct: endogenous in cells; host or cells: T47D cells
Assay: PI3Kα cellular assay: pAKT HTRF in T47D cells after EGF stimulation
Format: cell-based
Conditions: for pIC50: T47D cells (PI3Kα H1047R), pAKT S473 HTRF, EGF stimulation
Summary of the method: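 pAKT read by HTRF in lysates of EGF-stimulated (20 ng/mL, 10 min) T47D H1047R cells. Before stimulation, serum-starved cells (16 h) received compound for 1 h at 37 °C, dosed from 10,000 nM down to 0.5 nM in 3-fold steps.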

T1 sequence (P42336 whole entry H1047R): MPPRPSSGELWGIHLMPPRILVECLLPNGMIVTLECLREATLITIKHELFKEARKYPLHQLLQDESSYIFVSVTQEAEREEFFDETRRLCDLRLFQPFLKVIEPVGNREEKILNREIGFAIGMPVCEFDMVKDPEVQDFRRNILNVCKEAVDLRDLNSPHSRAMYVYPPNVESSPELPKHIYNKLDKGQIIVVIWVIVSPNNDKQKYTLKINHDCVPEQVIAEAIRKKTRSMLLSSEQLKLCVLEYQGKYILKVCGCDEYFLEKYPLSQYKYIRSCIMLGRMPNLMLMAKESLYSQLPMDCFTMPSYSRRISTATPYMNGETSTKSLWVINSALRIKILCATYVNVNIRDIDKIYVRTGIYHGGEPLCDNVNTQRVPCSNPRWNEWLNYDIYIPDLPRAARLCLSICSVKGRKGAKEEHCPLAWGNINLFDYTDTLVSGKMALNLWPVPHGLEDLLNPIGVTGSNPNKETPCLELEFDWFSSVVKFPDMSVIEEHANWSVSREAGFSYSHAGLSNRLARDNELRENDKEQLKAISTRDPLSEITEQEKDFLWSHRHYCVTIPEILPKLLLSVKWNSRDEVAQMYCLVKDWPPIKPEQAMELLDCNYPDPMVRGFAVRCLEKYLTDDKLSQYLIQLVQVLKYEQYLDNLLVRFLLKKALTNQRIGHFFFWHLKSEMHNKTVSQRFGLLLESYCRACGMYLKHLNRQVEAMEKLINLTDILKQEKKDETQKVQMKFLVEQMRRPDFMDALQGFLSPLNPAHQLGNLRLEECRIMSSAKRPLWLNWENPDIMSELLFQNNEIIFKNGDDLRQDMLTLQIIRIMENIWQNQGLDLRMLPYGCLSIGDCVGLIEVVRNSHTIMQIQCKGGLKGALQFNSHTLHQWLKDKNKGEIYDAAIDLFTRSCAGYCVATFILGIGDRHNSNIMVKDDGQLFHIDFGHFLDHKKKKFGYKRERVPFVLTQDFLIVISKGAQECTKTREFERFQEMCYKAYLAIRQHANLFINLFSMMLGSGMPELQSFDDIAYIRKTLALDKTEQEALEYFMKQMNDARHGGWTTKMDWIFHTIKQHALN
T1 sequence (P27986 whole entry partner): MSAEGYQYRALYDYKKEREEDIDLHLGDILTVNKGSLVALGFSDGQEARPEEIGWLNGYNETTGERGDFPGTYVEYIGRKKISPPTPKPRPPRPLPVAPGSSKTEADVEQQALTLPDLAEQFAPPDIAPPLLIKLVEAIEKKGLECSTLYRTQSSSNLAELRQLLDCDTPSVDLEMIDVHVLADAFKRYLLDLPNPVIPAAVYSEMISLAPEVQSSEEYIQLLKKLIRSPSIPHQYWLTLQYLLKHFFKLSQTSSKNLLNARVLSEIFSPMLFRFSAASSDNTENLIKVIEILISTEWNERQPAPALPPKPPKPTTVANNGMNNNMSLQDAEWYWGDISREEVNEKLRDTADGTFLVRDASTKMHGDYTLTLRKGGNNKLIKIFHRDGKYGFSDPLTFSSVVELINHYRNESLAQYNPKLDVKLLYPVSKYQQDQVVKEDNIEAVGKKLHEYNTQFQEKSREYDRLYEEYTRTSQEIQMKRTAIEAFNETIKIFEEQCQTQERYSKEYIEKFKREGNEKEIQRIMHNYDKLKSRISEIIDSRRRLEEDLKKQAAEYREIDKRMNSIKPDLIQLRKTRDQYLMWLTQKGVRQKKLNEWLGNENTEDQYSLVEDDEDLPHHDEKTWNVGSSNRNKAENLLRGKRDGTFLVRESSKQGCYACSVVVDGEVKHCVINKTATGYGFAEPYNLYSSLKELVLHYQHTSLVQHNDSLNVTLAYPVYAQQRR

pIC50 | T47D pAKT S473 HTRF IC50 (H1047R): T47D (H1047R) selectivity over SKBR3 (WT) | Structure (SMILES)
6.30 to 7.00 | A (A denotes >20-fold) | Cc1cc([C@@H](C)Nc2ccccc2C(=O)O)c2nc(-c3cccc(F)c3)c(C(C)C)c(=O)n2c1 [Compound 1277]
< 5.70 | C (C denotes ≤5-fold) | Cc1cc([C@H](C)Nc2ccccc2C(=O)O)c2nc(-c3cccc(F)c3)c(C(C)C)c(=O)n2c1 [Compound 1278]
> 7.00 | A (A denotes >20-fold) | Cc1cc([C@@H](C)Nc2ccccc2C(=O)O)c2nc([C@H]3CCCOC3)c(C)c(=O)n2c1 [Compound 1279]
> 7.00 | A (A denotes >20-fold) | Cc1cc([C@@H](C)Nc2ccccc2C(=O)O)c2nc([C@@H]3CCCOC3)c(C)c(=O)n2c1 [Compound 1280]
5.70 to 6.30 | B (B denotes 20-fold≥value>5-fold) | Cc1cc([C@H](C)Nc2ccccc2C(=O)O)c2nc([C@@H]3CCCOC3)c(C)c(=O)n2c1 [Compound 1281]
< 5.70 | C (C denotes ≤5-fold) | Cc1cc([C@H](C)Nc2ccccc2C(=O)O)c2nc([C@H]3CCCOC3)c(C)c(=O)n2c1 [Compound 1282]
< 5.70 | C (C denotes ≤5-fold) | Cc1cc([C@@H](C)Nc2ccccc2S(N)(=O)=O)c2nc(C3CCCOC3)c(C)c(=O)n2c1 (stereo partly drawn) [Compound 1283]
> 7.00 | A (A denotes >20-fold) | Cc1cc([C@H](C)Nc2ccccc2S(N)(=O)=O)c2nc([C@@H]3CCCOC3)c(C)c(=O)n2c1 [Compound 1285]
5.70 to 6.30 | B (B denotes 20-fold≥value>5-fold) | Cc1cc([C@H](C)Nc2ccccc2S(N)(=O)=O)c2nc([C@H]3CCCOC3)c(C)c(=O)n2c1 [Compound 1286]
– | C (C denotes ≤5-fold) | Cc1cc([C@@H](C)Nc2ccccc2S(N)(=O)=O)c2nc(C3CCN(CC(C)C)CC3)c(C)c(=O)n2c1 [Compound 1287]
6.30 to 7.00 | A (A denotes >20-fold) | CC(=O)N1CCC(c2ccc(-c3nc4c([C@@H](C)Nc5ccccc5C(=O)O)cc(C)cn4c(=O)c3C)cc2)CC1 [Compound 1289]
< 5.70 | C (C denotes ≤5-fold) | CC(=O)N1CCC(c2ccc(-c3nc4c([C@H](C)Nc5ccccc5C(=O)O)cc(C)cn4c(=O)c3C)cc2)CC1 [Compound 1290]
6.30 to 7.00 | A (A denotes >20-fold) | COc1cc(-c2nc3c([C@@H](C)Nc4ccccc4C(=O)O)cc(C)cn3c(=O)c2C)cn2ncc(C#N)c12 [Compound 1291]
< 5.70 | C (C denotes ≤5-fold) | COc1cc(-c2nc3c([C@H](C)Nc4ccccc4C(=O)O)cc(C)cn3c(=O)c2C)cn2ncc(C#N)c12 [Compound 1292]
6.30 to 7.00 | A (A denotes >20-fold) | Cc1cc(C(C)Nc2ccccc2C(=O)O)c2nc(C3CCCN(CC(F)F)C3)c(C)c(=O)n2c1 (stereo not drawn) [Compound 1293]
5.70 to 6.30 | B (B denotes 20-fold≥value>5-fold) | Cc1cc([C@@H](C)Nc2ccccc2S(N)(=O)=O)c2nc(-c3ccc(C4CCOCC4)nc3)c(C)c(=O)n2c1 [Compound 1294]
> 7.00 | A (A denotes >20-fold) | Cc1cc([C@H](C)Nc2ccccc2S(N)(=O)=O)c2nc(-c3ccc(C4CCOCC4)nc3)c(C)c(=O)n2c1 [Compound 1295]
6.30 to 7.00 | A (A denotes >20-fold) | Cc1cc([C@@H](C)Nc2ccccc2C(=O)O)c2nc(-c3cnc(C4CCOCC4)nc3)c(C)c(=O)n2c1 [Compound 1296]
< 5.70 | C (C denotes ≤5-fold) | Cc1cc([C@H](C)Nc2ccccc2C(=O)O)c2nc(-c3cnc(C4CCOCC4)nc3)c(C)c(=O)n2c1 [Compound 1297]
> 7.00 | A (A denotes >20-fold) | Cc1cc([C@@H](C)Nc2ccccc2C(=O)O)c2nc(-c3ccc4ccnn4c3)c(C)c(=O)n2c1 [Compound 1298]
< 5.70 | C (C denotes ≤5-fold) | Cc1cc([C@H](C)Nc2ccccc2C(=O)O)c2nc(-c3ccc4ccnn4c3)c(C)c(=O)n2c1 [Compound 1299]
> 7.00 | A (A denotes >20-fold) | Cc1cc(C(C)Nc2ccccc2C(=O)O)c2nc(-c3ccc(C4CCN(C(=O)C5CC5)CC4)c(F)c3)c(C)c(=O)n2c1 (stereo not drawn) [Compound 1300]

pIC50 | T47D pAKT S473 HTRF IC50 (H1047R): T47D (H1047R) selectivity over SKBR3 (WT) | Structure (SMILES)
< 5.70 | C (C denotes ≤5-fold) | Cc1cc(C(C)Nc2ccccc2C(=O)O)c2nc(-c3ccc(C4CCNCC4)nc3)c(C)c(=O)n2c1 (stereo not drawn) [Compound 1302]
< 5.70 | C (C denotes ≤5-fold) | Cc1cc(C(C)Nc2ccccc2C(=O)O)c2nc(-c3ccc(C4CNC4)nc3)c(C)c(=O)n2c1 (stereo not drawn) [Compound 1303]
5.70 to 6.30 | B (B denotes 20-fold≥value>5-fold) | Cc1cc(C(C)Nc2ccccc2S(N)(=O)=O)c2nc(-c3ccc(C4CCNCC4)nc3)c(C)c(=O)n2c1 (stereo not drawn) [Compound 1304]
< 5.70 | C (C denotes ≤5-fold) | Cc1cc(C(C)Nc2ccccc2S(N)(=O)=O)c2nc(-c3ccc(C4CNC4)nc3)c(C)c(=O)n2c1.O=C(O)C(F)(F)F (stereo not drawn) [Compound 1305]
– | B (B denotes 20-fold≥value>5-fold) | Cc1cc([C@H](C)Nc2ccccc2C(=O)O)c2nc(-c3ccc(CNc4[nH]cc(C)c4C#N)c(C)c3)c(C)c(=O)n2c1 [Compound 1307]
6.30 to 7.00 | A (A denotes >20-fold) | Cc1cc(C(C)Nc2ccccc2C(=O)O)c2nc(C3CCN(CC(F)F)CC3)cc(=O)n2c1 (stereo not drawn) [Compound 1308]
5.70 to 6.30 | B (B denotes 20-fold≥value>5-fold) | Cc1cc([C@@H](C)Nc2ccccc2S(N)(=O)=O)c2nc([C@@H]3CCCN(CC(F)F)C3)c(C)c(=O)n2c1 [Compound 1309]
< 5.70 | C (C denotes ≤5-fold) | Cc1cc([C@@H](C)Nc2ccccc2S(N)(=O)=O)c2nc([C@H]3CCCN(CC(F)F)C3)c(C)c(=O)n2c1 [Compound 1310]
< 5.70 | C (C denotes ≤5-fold) | Cc1cc([C@H](C)Nc2ccccc2S(N)(=O)=O)c2nc([C@@H]3CCCN(CC(F)F)C3)c(C)c(=O)n2c1 [Compound 1311]
> 7.00 | A (A denotes >20-fold) | Cc1cc([C@H](C)Nc2ccccc2S(N)(=O)=O)c2nc([C@H]3CCCN(CC(F)F)C3)c(C)c(=O)n2c1 [Compound 1312]
6.30 to 7.00 | A (A denotes >20-fold) | Cc1cc(C(C)Nc2ccccc2C(=O)O)c2nc(-c3ccc(CC4CCN(C(=O)C5CC5)CC4)c(F)c3)c(C)c(=O)n2c1 (stereo not drawn) [Compound 1313]
6.30 to 7.00 | A (A denotes >20-fold) | Cc1cc([C@@H](C)Nc2ccccc2C(=O)O)c2nc(-c3ccc(CC4CCN(C(=O)C5CC5)CC4)c(F)c3)c(C)c(=O)n2c1 [Compound 1314]
– | C (C denotes ≤5-fold) | Cc1cc([C@H](C)Nc2ccccc2C(=O)O)c2nc(-c3ccc(CC4CCN(C(=O)C5CC5)CC4)c(F)c3)c(C)c(=O)n2c1 [Compound 1315]
– | C (C denotes ≤5-fold) | Cc1cc([C@@H](C)Nc2ccccc2C(=O)O)c2nc(-c3ccc(C4CCC(C(=O)C5CC5)CC4)c(F)c3)c(C)c(=O)n2c1 (stereo partly drawn) [Compound 1318]
– | B (B denotes 20-fold≥value>5-fold) | Cc1cccc(-c2nc3c([C@H](C)Nc4ccccc4S(C)(=O)=O)cc(C)cn3c(=O)c2C)c1 [Compound 1320]
– | B (B denotes 20-fold≥value>5-fold) | Cc1cccc(-c2nc3c(C(C)Nc4ccccc4C(=O)CS(=O)(=O)N(C)C)cc(C)cn3c(=O)c2C)c1 (stereo not drawn) [Compound 1321]
– | C (C denotes ≤5-fold) | Cc1cc(C(C)Nc2ccccc2C(=O)O)c2nc(C3=CCC(C4CN(C)C4)C=C3)c(C)c(=O)n2c1 (stereo not drawn) [Compound 1322]
> 7.00 | A (A denotes >20-fold) | Cc1cc([C@@H](C)Nc2ccccc2S(N)(=O)=O)c2nc(N3Cc4cccnc4C3)c(C)c(=O)n2c1 [Compound 1323]
– | A (A denotes >20-fold) | Cc1cc([C@H](C)Nc2ccccc2S(N)(=O)=O)c2nc(N3Cc4cccnc4C3)c(C)c(=O)n2c1 [Compound 1324]
– | C (C denotes ≤5-fold) | CCc1ccn2c(=O)c(C)c(-c3cccc(F)c3)nc2c1[C@@H](C)Nc1ccccc1C(=O)O [Compound 1325]
> 7.00 | A (A denotes >20-fold) | CCc1ccn2c(=O)c(C)c(-c3cccc(F)c3)nc2c1[C@H](C)Nc1ccccc1C(=O)O [Compound 1326]
– | B (B denotes 20-fold≥value>5-fold) | Cc1cc([C@H](C)Nc2ccccc2S(=O)(=O)O)c2nc(-c3cccc(C4CC4)c3)cc(=O)n2c1 [Compound 1327]
